Results published in the supplement of paper PMC10307832.

Tests used:
Assay in all cases: relative viability (nuclei count vs DMSO), 5 days (fraction); higher = more cells survive
201T = tested on: 201T
In short: (§1)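 Five library-drug doses in √10 steps were combined with a fixed anchor-drug dose, or a single drug was given alone, by pin tool to lung cancer cell lines in 1536-well plates the day after seeding. Nuclei were stained and counted after 5 days. Relative viability is the nuclei count in treated wells over that in vehicle wells, taken as the median of duplicate plates.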

BEN = tested on: BEN
In short: as §1

CAL-12T = tested on: CAL-12T
In short: as §1

HCC-827 = tested on: HCC-827
In short: as §1

LCLC-103H = tested on: LCLC-103H
In short: as §1

LCLC-97TM1 = tested on: LCLC-97TM1
In short: as §1

LXF-289 = tested on: LXF-289
In short: as §1

NCI-H1395 = tested on: NCI-H1395
In short: as §1

NCI-H1437 = tested on: NCI-H1437
In short: as §1

NCI-H1650 = tested on: NCI-H1650
In short: as §1

NCI-H1792 = tested on: NCI-H1792
In short: as §1

NCI-H1793 = tested on: NCI-H1793
In short: as §1

NCI-H1944 = tested on: NCI-H1944
In short: as §1

NCI-H2087 = tested on: NCI-H2087
In short: as §1

NCI-H2228 = tested on: NCI-H2228
In short: as §1

NCI-H2405 = tested on: NCI-H2405
In short: as §1

NCI-H3122 = tested on: NCI-H3122
In short: as §1

NCI-H322M = tested on: NCI-H322M
In short: as §1

NCI-H647 = tested on: NCI-H647
In short: as §1

NCI-H727 = tested on: NCI-H727
In short: as §1

RERF-LC-KJ = tested on: RERF-LC-KJ
In short: as §1

SK-LU-1 = tested on: SK-LU-1
In short: as §1

Structure (SMILES): COc1nc(C)cnc1NS(=O)(=O)c1cccnc1-c1ccc(-c2nnco2)cc1 [Zibotentan] + CC(=O)c1c(C)c2cnc(Nc3ccc(N4CCNCC4)cn3)nc2n(C2CCCC2)c1=O [Palbociclib] (partner 0.5 µM)
- relative viability (201T; first compound 0.08 µM): 0.357
- relative viability (201T; first compound 0.253 µM): 0.346
- relative viability (201T; first compound 0.8 µM): 0.359
- relative viability (201T; first compound 2.53 µM): 0.363
- relative viability (BEN; first compound 0.08 µM): 0.496
- relative viability (BEN; first compound 0.253 µM): 0.493
- relative viability (BEN; first compound 0.8 µM): 0.451
- relative viability (BEN; first compound 2.53 µM): 0.44
- relative viability (CAL-12T; first compound 0.08 µM): 0.625
- relative viability (CAL-12T; first compound 0.253 µM): 0.365
- relative viability (CAL-12T; first compound 0.8 µM): 0.629
- relative viability (CAL-12T; first compound 2.53 µM): 0.508
- relative viability (HCC-827; first compound 0.08 µM): 0.437
- relative viability (HCC-827; first compound 0.253 µM): 0.49
- relative viability (HCC-827; first compound 0.8 µM): 0.454
- relative viability (HCC-827; first compound 2.53 µM): 0.487
- relative viability (LCLC-103H; first compound 0.08 µM): 0.459
- relative viability (LCLC-103H; first compound 0.253 µM): 0.477
- relative viability (LCLC-103H; first compound 0.8 µM): 0.449
- relative viability (LCLC-103H; first compound 2.53 µM): 0.442
- relative viability (LCLC-97TM1; first compound 0.08 µM): 0.236
- relative viability (LCLC-97TM1; first compound 0.253 µM): 0.247
- relative viability (LCLC-97TM1; first compound 0.8 µM): 0.228
- relative viability (LCLC-97TM1; first compound 2.53 µM): 0.253
- relative viability (LXF-289; first compound 0.08 µM): 0.577
- relative viability (LXF-289; first compound 0.253 µM): 0.55
- relative viability (LXF-289; first compound 0.8 µM): 0.592
- relative viability (LXF-289; first compound 2.53 µM): 0.61
- relative viability (NCI-H1395; first compound 0.08 µM): 0.653
- relative viability (NCI-H1395; first compound 0.253 µM): 0.618
- relative viability (NCI-H1395; first compound 0.8 µM): 0.614
- relative viability (NCI-H1395; first compound 2.53 µM): 0.654
- relative viability (NCI-H1437; first compound 0.08 µM): 0.327
- relative viability (NCI-H1437; first compound 0.253 µM): 0.296
- relative viability (NCI-H1437; first compound 0.8 µM): 0.288
- relative viability (NCI-H1437; first compound 2.53 µM): 0.304
- relative viability (NCI-H1650; first compound 0.08 µM): 0.335
- relative viability (NCI-H1650; first compound 0.8 µM): 0.357
- relative viability (NCI-H1650; first compound 2.53 µM): 0.336
- relative viability (NCI-H1792; first compound 0.08 µM): 0.77
- relative viability (NCI-H1792; first compound 0.253 µM): 0.551
- relative viability (NCI-H1792; first compound 0.8 µM): 0.525
- relative viability (NCI-H1792; first compound 2.53 µM): 0.578
- relative viability (NCI-H1793; first compound 0.08 µM): 0.362
- relative viability (NCI-H1793; first compound 0.253 µM): 0.378
- relative viability (NCI-H1793; first compound 0.8 µM): 0.287
- relative viability (NCI-H1793; first compound 2.53 µM): 0.296
- relative viability (NCI-H1944; first compound 0.08 µM): 0.366
- relative viability (NCI-H1944; first compound 0.253 µM): 0.301
- relative viability (NCI-H1944; first compound 0.8 µM): 0.333
- relative viability (NCI-H1944; first compound 2.53 µM): 0.39
- relative viability (NCI-H2087; first compound 0.08 µM): 0.221
- relative viability (NCI-H2087; first compound 0.253 µM): 0.263
- relative viability (NCI-H2087; first compound 0.8 µM): 0.297
- relative viability (NCI-H2087; first compound 2.53 µM): 0.268
- relative viability (NCI-H2228; first compound 0.08 µM): 0.762
- relative viability (NCI-H2228; first compound 0.253 µM): 0.654
- relative viability (NCI-H2228; first compound 0.8 µM): 0.821
- relative viability (NCI-H2228; first compound 2.53 µM): 0.897
- relative viability (NCI-H2405; first compound 0.08 µM): 0.544
- relative viability (NCI-H2405; first compound 0.253 µM): 0.546
- relative viability (NCI-H2405; first compound 0.8 µM): 0.544
- relative viability (NCI-H2405; first compound 2.53 µM): 0.55
- relative viability (NCI-H3122; first compound 0.08 µM): 0.186
- relative viability (NCI-H3122; first compound 0.253 µM): 0.177
- relative viability (NCI-H3122; first compound 0.8 µM): 0.154
- relative viability (NCI-H3122; first compound 2.53 µM): 0.18
- relative viability (NCI-H322M; first compound 0.08 µM): 0.465
- relative viability (NCI-H322M; first compound 0.253 µM): 0.408
- relative viability (NCI-H322M; first compound 0.8 µM): 0.49
- relative viability (NCI-H322M; first compound 2.53 µM): 0.521
- relative viability (NCI-H647; first compound 0.08 µM): 0.471
- relative viability (NCI-H647; first compound 0.253 µM): 0.358
- relative viability (NCI-H647; first compound 0.8 µM): 0.361
- relative viability (NCI-H647; first compound 2.53 µM): 0.469
- relative viability (NCI-H727; first compound 0.08 µM): 0.623
- relative viability (NCI-H727; first compound 0.253 µM): 0.667
- relative viability (NCI-H727; first compound 0.8 µM): 0.73
- relative viability (NCI-H727; first compound 2.53 µM): 0.658
- relative viability (RERF-LC-KJ; first compound 0.08 µM): 1.1
- relative viability (RERF-LC-KJ; first compound 0.253 µM): 0.999
- relative viability (RERF-LC-KJ; first compound 0.8 µM): 1.08
- relative viability (RERF-LC-KJ; first compound 2.53 µM): 1.14
- relative viability (SK-LU-1; first compound 0.08 µM): 0.416
- relative viability (SK-LU-1; first compound 0.253 µM): 0.389
- relative viability (SK-LU-1; first compound 0.8 µM): 0.367
- relative viability (SK-LU-1; first compound 2.53 µM): 0.367
